Results on 32 molecules are retold here after patent US7217722B2 (Kirin Beer Kabushiki Kaisha, priority 2000, dated 2007).

Test [1] deals with Human-derived histiocyte lymphoma (U937/CCR2). Briefly: Leukocyte migration inhibitory activity (MCP-1 induced migration, CHEMOTAXICELL). The following applies: U937/CCR2, MCP-1, 1 hr; for inhibition at 0.3 µM: test compound 0.3 μM. In kind it is cell-based. As to the method:
Human-derived histiocyte lymphoma (U937/CCR2), in which mouse-derived CCR2 had been highly expressed, was suspended in a 0.1% BSA-containing RPMI 1640 medium, to which a test compound had been added (5×10^6/ml), and the suspension was incubated for 20 min. A chemical solution (500 μl) (0.1% BSA-containing RPMI 1640 medium DMSO 1%), to which an MCP-1 ligand (1 μM) and the test compound had been added, was added to a 24-well plate. CHEMOTAXICELL was put thereon, and 200 μl of the cell suspension was added to the top layer, followed by migration under 5% carbon dioxide at 37° C. for one hr. The number of cells, which had migrated to the lower chamber, was counted with a particle count analyzer (CDA-500, SYSMEX CORPORATION), and the percentage migration inhibition was calculated by the following equation; Migration inhibition (%)={1−(number of migrated cells in the presence of test compound/number of migrated cells in the absence of test compound)}×100

Test [2] deals with Rho kinase (fused protein of bovine Rho kinase catalyst region and glutathione S-transferase) (Bos taurus, UniProt Q28021). The test can be described thus: Rho kinase inhibitory activity (phosphorylation of S6 231–239 substrate, γ32P-ATP). In kind it is biochemical. Particulars: concentration inhibiting substrate phosphorylation by 50%. The procedure:
This permits the substrate to be labeled with the radioisotope.
Thereafter, the substrate was adsorbed to a filter paper. ATP was washed away with a phosphoric acid solution, and the amount of the phosphorylated substrate was then measured with a liquid scintillation counter.

For test [3], the system named is spontaneously hypertensive male rats (SHR). The test can be described thus: Antihypertensive activity in spontaneously hypertensive rats. In kind it is in vivo. The following applies: Rattus norvegicus, po, 30 mg/kg oral, systolic pressure 3 to 4 hr after administration, mean ± SEM of 3 to 4 SHRs, read-out: Blood pressure depression, %. The procedure:
This test was carried out as follows. A test compound was dissolved in purified water, or alternatively the test compound was suspended in a 5% aqueous sodium carboxymethylcellulose solution. The solution or the suspension was forcibly administered into the gaster of SHR through an oral probe. The systolic pressure of SHR was measured with a bloodless sphygmometer (BP-98A, Softron Co.) immediately before the administration of the test compound and 3 to 4 hr after the administration of the test compound or 6 to 7 hr after the administration of the test compound. The percentage of blood pressure depression was calculated by the following equation: Antihypertensive activity (%)={(blood pressure before administration of test compound−blood pressure after administration of test compound)/blood pressure before administration of test compound}×100
Each compound was administered at 30 mg/kg, and the antihypertensive activity (%) was expressed in terms of the mean value of 3 to 4 SHRs and SEM (standard error of the mean).
For data with *, the blood pressure was measured 6 to 7 hr after the administration of the test compound, and, for data with no marks, the blood pressure was measured 3 to 4 hr after the administration of the test compound.

Where [4] appears, read: Homo sapiens, U-937, 1 h, test compound 3 μM, read-out: Migration inhibition (%) ± SEM.
Setting [5] is: Homo sapiens, U-937, 1 h, test compound 1 μM, read-out: Migration inhibition (%) ± SEM.
Where [6] appears, read: Homo sapiens, U-937, 1 h, read-out: Migration inhibition (%) ± SEM.
Setting [7] is: Homo sapiens, U-937, 1 h, test compound 30 μM, read-out: Migration inhibition (%) ± SEM.

Structures can show the parent of a compound that is named as a salt.

Chain of Rho kinase (fused protein of bovine Rho kinase catalyst region and glutathione S-transferase) (Q28021 92-354 limits assumed): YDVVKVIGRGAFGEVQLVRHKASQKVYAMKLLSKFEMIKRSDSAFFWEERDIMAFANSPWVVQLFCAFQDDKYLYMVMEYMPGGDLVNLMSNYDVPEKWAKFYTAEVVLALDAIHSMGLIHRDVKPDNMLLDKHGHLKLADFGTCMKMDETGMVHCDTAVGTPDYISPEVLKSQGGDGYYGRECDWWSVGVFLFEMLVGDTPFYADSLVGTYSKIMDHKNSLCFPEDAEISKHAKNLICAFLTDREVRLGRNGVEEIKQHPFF

For the molecule `c1ccc(CCN[C@H]2CC[C@@H](Nc3ccc4[nH]ncc4c3)CC2)cc1` [259 (syn), N1-(1H-5-Indazolyl)-N4-phenylethyl-1,4-cyclohexanediamine], the inhibition at 3 µM in test [1] (setting [4]) was 85.3 ± 8.5%.

With `CCCN[C@H]1CC[C@H](Nc2cccc3cnccc23)CC1` [260 (anti)], the inhibition at 1 µM in test [1] (setting [5]) was determined as 77.4 ± 14.4%.

With `c1cc(NC2CCC(NC3CC3)CC2)c2ccncc2c1` (stereo not drawn) [262 (anti), N1-Cyclopropyl-N4-(5-isoquinolyl)-1,4-cyclohexanediamine], the inhibition at 0.3 µM in test [1] (setting [6]) was 24.4 ± 8.1%. Further, the inhibition at 1 µM in test [1] (setting [5]) came out at 82.5 ± 6.69%.

`c1cc(NC2CCC(NC3CC3)CC2)c2ccncc2c1` (stereo not drawn) [262 (syn), N1-Cyclopropyl-N4-(5-isoquinolyl)-1,4-cyclohexanediamine]: the “Migration inhibition (%) ± SEM” value in test [1] (test compound 1 μM, 1 µM) was 69.9 ± 15.1%.

In general, IC50 refers to the concentration that inhibits the measured activity by half. Read a high IC50 as weaker potency in that assay. In test [2], `CC(NC(=O)Nc1ccc2c(c1)C(=O)NC2=O)c1ccc(Br)cc1` (centres unmarked) [Example 20, N-[1-(4-bromophenyl)ethyl]-N′-(1,3-dioxo-2,3-dihydro-1H-5-isoindolyl)urea] showed an IC50 of 110 nM. In test [1] (setting [4]), the inhibition at 3 µM turned out to be 46.7 ± 19.4%. Further, the inhibition at 30 µM in test [1] (setting [7]) is 95.4 ± 3.4%.

With `Cl.c1ccc(CN2CCCC(Nc3ccc4[nH]ncc4c3)C2)cc1` (centres unmarked) [Example 21.HCl, N-(1-Benzyl-3-piperidyl)-N(1H-5-indazolyl)amine], the figures for the “Migration inhibition (%) ± SEM” value in test [1] (test compound 3 μM) and in test [1] (test compound 30 μM) were 83.5 ± 3.3% and 99.1 ± 0.4%, respectively.

Regarding `Brc1ccc(CN2CCC(Nc3ccc4[nH]ncc4c3)CC2)cc1` [Example 22], the inhibition at 3 µM in test [1] (setting [4]) came to 34.8 ± 12.4%. Besides, the inhibition at 30 µM in test [1] (setting [7]) was found to be 92.9 ± 1.3%.

The molecule `O=C(NCc1c(Cl)cccc1Cl)Nc1ccncc1` [Example 80, N-(2,6-dichlorobenzyl)-N′-(4-pyridyl)urea] yielded an IC50 in test [2] of 770 nM. Moreover, the inhibition at 3 µM in test [1] (setting [4]) came out at 26 ± 4.7%. In addition, the inhibition at 30 µM in test [1] (setting [7]) was determined as 65.1 ± 17.3%.

`O=C(NCc1c(F)cccc1Cl)Nc1ccc2c(c1)C(=O)NC2=O` [Example 83, N-(2-chloro-6-fluorobenzyl)-N′-(1,3-dioxo-2,3-dihydro-1H-6-isoindolyl)urea] had an IC50 in test [2] of 60 nM. The inhibition at 3 µM in test [1] (setting [4]) was 16.1 ± 9.6%. In addition, in test [1] (setting [7]), the inhibition at 30 µM was 92.5 ± 3.3%.

In test [2], `O=C(NCc1c(F)cccc1F)Nc1ccc2c(c1)C(=O)NC2=O` [Example 90, N-(2,6-difluorobenzyl)-N′-(1,3-dioxo-2,3-dihydro-1H-5-isoindolyl)urea] returned an IC50 of 69 nM. In addition, the inhibition at 30 µM in test [1] (setting [7]) is 78.3 ± 3.2%.

On to `O=C(NCc1c(F)cccc1F)Nc1ccc2[nH]ncc2c1` [Example 95, N-(2,6-difluorobenzyl)-N′-(1H-5-indazolyl)urea], for which the IC50 in test [2] was found to be 85 nM. In test [1] (setting [4]), the inhibition at 3 µM turned out to be 17.1 ± 11.7%. In addition, in test [1] (setting [7]), the inhibition at 30 µM was 77.6 ± 6.4%.

Molecule `O=C(NCc1c(F)cccc1Cl)Nc1ccc2[nH]ncc2c1` [Example 102, N-(2-chloro-6-fluorobenzyl)-N′-(1H-5-indazolyl)urea] gave an IC50 in test [2] of 79 nM. For the same molecule, the inhibition at 3 µM in test [1] (setting [4]) came out at 6.8 ± 17%. Moreover, in test [1] (setting [7]), the inhibition at 30 µM was 96.7 ± 1%.

Molecule `c1cc2[nH]ncc2cc1NC1CCNCC1` [Example 128, N-(1H-5-indazolyl)-N-(4-piperidyl)amine] gave an IC50 in test [2] of 287 nM. The inhibition at 3 µM in test [1] (setting [4]) was determined as 2.9 ± 12.3%. Besides, the inhibition at 30 µM in test [1] (setting [7]) came to 45.9 ± 12.3%.

The molecule `c1ccc(CN2CCC(Nc3ccc4[nH]ncc4c3)C2)cc1` (centres unmarked) [Example 146, N-(1-benzyltetrahydro-1H-pyrrolyl)-N-(1H-5-indazolyl)amine] showed an IC50 in test [2] of 32 nM. Besides, the inhibition at 3 µM in test [1] (setting [4]) was determined as 45.6 ± 9.5%. Besides, the inhibition at 30 µM in test [1] (setting [7]) came to 93.9 ± 1.7%.

Take `c1ccc(CN2CCC(Nc3ccc4[nH]ncc4c3)C2)cc1` (centres unmarked) [Example 146.HCl, N-(1-Benzyltetrahydro-1H-pyrrolyl)-N-(1H-5-indazolyl)amine]: the “Migration inhibition (%) ± SEM” value in test [1] (test compound 3 μM, 3 µM) was determined as 74.5 ± 1.7%; in test [1] (test compound 30 μM, 30 µM), 97.9 ± 1.0%.

For `COC(=O)C(c1ccccc1)N1CCCC(Nc2ccc3[nH]ncc3c2)C1` (centres unmarked) [Example 221, methyl 2-[3-(1H-5-indazolylamino)piperidino]-2-phenylacetate], the inhibition at 0.03 µM in test [1] (Homo sapiens, U-937, 1 h, test compound 0.03 μM, read-out: Migration inhibition (%) ± SEM) came out at 27.5 ± 33.6%. The inhibition at 0.3 µM in test [1] (setting [6]) is 90.8 ± 11%.

For the molecule `CC(C)C(c1ccccc1)N1CCCC(Nc2ccc3[nH]ncc3c2)C1` (centres unmarked) [Example 240, N-(1H-5-indazolyl)-N-[1-(2-methyl-1-phenyl-propyl)-3-piperidyl]amine], the inhibition in vivo at 30 mg/kg in test [3] was determined as 21.1 ± 6.5%.

On to `CCCN[C@H]1CC[C@@H](Nc2ccc3[nH]ncc3c2)CC1` [Example 243 (syn), N1-(1H-5-Indazolyl)-N4-propyl-1,4-cyclohexanediamine], for which, in test [3], the inhibition in vivo at 30 mg/kg is 26.4 ± 5%.

Take `CCCNC1CCC(Nc2ccc3[nH]ncc3c2)CC1` (centres unmarked) [Example 243, N1-(1H-5-indazolyl)-N4-propyl-1,4-cyclohexanediamine]: the inhibition at 3 µM in test [1] (setting [4]) stood at 82.8 ± 7.1%.

`FCCN[C@H]1CC[C@H](Nc2ccc3[nH]ncc3c2)CC1` [Example 246 (anti), N1-(2-Fluoroethyl)-N4-(1H-5-indazolyl)-1,4-cyclohexanediamine]: the inhibition in vivo at 30 mg/kg in test [3] turned out to be 51.4 ± 0.9%.

Consider `FCCN[C@H]1CC[C@@H](Nc2ccc3[nH]ncc3c2)CC1` [Example 246 (syn), N1-(2-Fluoroethyl)-N4-(1H-5-indazolyl)-1,4-cyclohexanediamine], for which the inhibition in vivo at 30 mg/kg in test [3] amounted to 37.2 ± 11.7%.

Turning to `c1cc2[nH]ncc2cc1N[C@H]1CC[C@@H](NC2CC2)CC1` [Example 247 (syn), N1-Cyclopropyl-N4-(1H-5-indazolyl)-1,4-cyclohexanediamine], the inhibition in vivo at 30 mg/kg in test [3] stood at 43.3 ± 1.2%.

Turning to `N[C@H]1CC[C@H](Nc2ccc3[nH]ncc3c2)CC1` [Example 248 (anti), N1-(1H-5-Indazolyl)-1,4-cyclohexanediamine], the inhibition in vivo at 30 mg/kg in test [3] came to 18.8 ± 8%.

With `FCCN[C@H]1CC[C@H](Nc2cccc3cnccc23)CC1` [Example 261 (anti), N1-(2-Fluoroethyl)-N4-(5-isoquinolyl)-1,4-cyclohexanediamine], the inhibition in vivo at 30 mg/kg in test [3] stood at 47.3 ± 3.6%.

As to `FC(F)(F)CCCN1CCCC(Nc2cccc3cnccc23)C1` (centres unmarked) [Example 273, N-(5-isoquinolyl)-N-[1-(4,4,4-trifluorobutyl)-3-piperidyl]amine], the inhibition in vivo at 30 mg/kg in test [3] was 30.4 ± 7.3%.

As for `CCCC(C)CN1CCCC(Nc2ccc3[nH]ncc3c2)C1` (centres unmarked) [Example 281, N-(1H-5-indazolyl)-N-[1-(2-methylpentyl)-3-piperidyl]amine], the inhibition at 3 µM in test [1] (setting [4]) worked out at 100 ± 8.2%.

As to `Fc1cc(F)c(CN2CCCC(Nc3ccc4[nH]ncc4c3)C2)c(F)c1` (centres unmarked) [Example 282, N-(1H-5-indazolyl)-N-[1-(2,4,6-trifluorobenzyl)-3-piperidyl]amine], in test [1] (setting [5]), the inhibition at 1 µM turned out to be 29.9 ± 4.1%.

Regarding `CCCN1CCC(Nc2ccc3[nH]ncc3c2)CC1` [Example 286, N-(1H-5-indazolyl)-N-(1-propyl-4-piperidyl)-amine], the inhibition in vivo at 30 mg/kg in test [3] was found to be 23.6 ± 8.6%.

Consider `c1cc2[nH]ncc2cc1NC1CCN(CC2CC2)CC1` [Example 287, N-[1-(cyclopropylmethyl)-4-piperidyl]-N-(1H-5-indazolyl)amine], for which, in test [3], the inhibition in vivo at 30 mg/kg was 24.4 ± 6.8%.

Turning to `Fc1ccc(CN2CCCC(Nc3ccc4[nH]ncc4c3)C2)c(Cl)c1` (centres unmarked) [Example 293, N-[1-(2-chloro-4-fluorobenzyl)-3-piperidyl]-N-(1H-5-indazolyl)amine], the inhibition at 3 µM in test [1] (setting [4]) was found to be 93.5 ± 9.9%.

On to `COC(=O)C(c1ccc(F)c(F)c1)N1CCCC(Nc2ccc3[nH]ncc3c2)C1` (centres unmarked) [Example 294], for which the inhibition at 0.1 µM in test [1] (Homo sapiens, U-937, 1 h, test compound 0.1 μM, read-out: Migration inhibition (%) ± SEM) came to 87.4 ± 6.4%. The inhibition at 0.3 µM in test [1] (setting [6]) is 98.3 ± 1.4%.

In the case of `CCC(CC)CN1CCC(Nc2cccc3cnccc23)CC1` [Example 320, N-[1-(2-ethylbutyl)-4-piperidyl]-N-(5-isoquinolyl)amine], the inhibition at 1 µM in test [1] (setting [5]) stood at 82.9 ± 7%.
